Test results published in article PMC6272399, “Anti-Proliferative Effect and Induction of Apoptosis in Androgen-Independent Human Prostate Cancer Cells by 1,5-Bis(2-hydroxyphenyl)-1,4-pentadiene-3-one” (Molecules, 2015).

Assays:
DU 145 cells [1] = assay: BrdU cell proliferation assay, DU 145; format: cell-based, human; conditions: DU 145, BrdU
Protocol: (§1) The anti-proliferative effects of compound on treated cells, was measured using the BrdU cell proliferation assay kit (Roche Applied Science Diagnostics, Indianapolis, IN, USA) according to the manufacturer’s protocol. The assay was based on incorporation of BrdU during DNA synthesis in proliferating cells. Cells were plated at a concentration of 10^4 cells/mL in a 96-well microtiter plate and incubated overnight. The cells were treated with compounds and curcumin (concentrations ranging from 1.56 µM–100 µM) as positive control for 24, 48 and 72 h respectively. Then, BrdU labeling solution (5 µL, diluted by 1/100 in culture media) was added to each well and incubated for 2 h at 37 °C. The media was replaced with fix/denaturing solution (100 µL) and incubated for 30 min at room temperature. Then, the fix/denaturing solution was removed by tapping off and followed by addition of 50 µL anti-BrdU antibody (50 µL, diluted by 1/100 in dilution buffer) to each well and further incubated for another 90 min at room temperature. Next, the cells were washed 3 times with wash buffer and substrate solution (50 µL) was added to each well. The plate was left for 10 min at room temperature in the dark and the absorbance was measured at a wavelength of 370 nm with a reference wavelength of 492 nm using a micro-plate ELISA reader (Bio-Rad). The percentage of BrdU incorporation was determined based on the ratio of absorbance of sample treated-cells to absorbance of control (untreated cells/DMSO only) multiplied by 100.

[2] = test system: WRL 68 (human epithelial hepatocytes); assay: MTT cytotoxicity assay, normal WRL 68; format: cell-based; conditions: WRL68, normal cell line, 72 h treatment, mean ± SD, read-out: EC50 Values (µM) of Compounds on Cell Lines WRL-68
Protocol: (§2) Cell viability was determined by the MTT [3-(4,5-dimethylthiazol-2-yl)-2,5-diphenyltetrazolium bromide] assay, as previously described by Mosmann with modifications. Briefly, cells were detached from the tissue culture flask and pelleted by centrifugation at 1000 rpm for 5 min. Then, the density of the viable cells was counted using a haemocytometer. Cells were then plated in a 96-well flat bottom micro-titer plate (Nunc) at a concentration of 10^4 cells/mL and incubated in a 5% CO2 incubator at 37 °C overnight to allow the cells to adhere to the bottom of the wells. After 24 h, the media was aspirated off and replaced with fresh media containing sample compounds (curcumin and curcumin analogues) of seven different concentrations ranging from 1.56 µM–100 µM and incubated at 37 °C, 5% CO2 for 72 h. Separately, the sample compounds were prepared in a stock solution of 50 mM in 100% dimethyl sulfoxide (DMSO, Molecular Biology Grade, Sigma-Aldrich, St. Louis, MO, USA) and diluted in the culture media to a working concentration of 200 µM. Curcumin, the parent compound which was used as the positive control was also prepared in the similar manner. A two-fold serial dilution was done for each sample in triplicates down the columns of the plate, yielding a final volume and concentration of 100 µL in 0.2% DMSO in each wells. Following treatment, 50 µL MTT solutions (0.5 mg/mL in PBS) was added to each well and incubated for another 4 h at 37 °C in a humidified 5% CO2 incubator. The supernatant was replaced with 100 µL of DMSO and the optical density (OD) was measured at 570/650 nm using a micro-plate ELISA reader (Bio-Rad Laboratories, Hercules, CA, USA). The percentage of viable cells was calculated based on the ratio of the corrected absorbance of sample-treated cells to the corrected absorbance of the control (0.2% DMSO-treated cells) multiplied by 100. The percentage of cell viability was determined as follows: % Cell viability= OD of treated cells /OD of control ×100
(§3) For each compound tested, the EC50 value was generated from the log dose-response curves for each cell line using the Graphpad Prism version 5.04 for Windows (Graphpad Software, La Jolla, CA, USA). […] Cytotoxicity of each tested compound is expressed as the EC50 value. Based on the EC50 values, selectivity index (SX) value was also determined. Selectivity index is a special parameter applied as a selectivity indicator of tested compounds towards cancer cells. The SX represents the ratio of EC50 value obtained in toxicity testing using the normal cell lines to the EC50 values of the toxicity testing of the cancer cells, and then multiplied by 100. All the compounds were assessed for their potential toxicity against normal, non-cancerous cells. […] The SX values were calculated using the following equation: SX = EC50 (normal cells)/EC50 (cancer cells) × 100

[3] = test system: WI-38 (human lung fibroblast cells); assay: MTT cytotoxicity assay, normal WI-38; format: cell-based; conditions: normal cell line, 72 h treatment, mean ± SD, read-out: EC50 Values (µM) of Compounds on Cell Lines WI-38
Protocol: as §2, §3

DU 145 cells [4] = assay: MTT cytotoxicity (cell viability) assay, DU 145; format: cell-based, human; conditions: for dose from which decrease in cell viability is significant: DU 145, MTT, vs untreated; for EC50: Homo sapiens, DU-145, MTT, 72 h treatment, mean ± SD, three experiments, read-out: EC50 Values (µM) of Compounds on Cell Lines DU 145; for Selective index (SX) WI-38 vs DU 145: SX = EC50 (WI-38)/EC50 (DU 145) × 100; for Selective index (SX) WRL68 vs DU 145: SX = EC50 (WRL68)/EC50 (DU 145) × 100
Protocol: as §2, §3

PC-3 cells [5] = assay: BrdU cell proliferation assay, PC-3; format: cell-based, human; conditions: PC-3, BrdU
Protocol: as §1

PC-3 cells [6] = assay: MTT cytotoxicity (cell viability) assay, PC-3; format: cell-based, human; conditions: for EC50: Homo sapiens, PC-3, MTT, 72 h treatment, mean ± SD, three experiments, read-out: EC50 Values (µM) of Compounds on Cell Lines PC-3; for dose from which decrease in cell viability is significant: PC-3, MTT, vs untreated; for Selective index (SX) WI-38 vs PC-3: SX = EC50 (WI-38)/EC50 (PC-3) × 100; for Selective index (SX) WRL68 vs PC-3: SX = EC50 (WRL68)/EC50 (PC-3) × 100
Protocol: as §2, §3

[7] = test system: caspase-3 activity in PC-3 cells; assay: Caspase-3 colorimetric activity assay, PC-3; format: cell-based, human; conditions: PC-3, all time points, inhibitor control
Protocol: (§4) Caspase-3 activity was determined using the caspase-3 colorimetric assay kit (Sigma-Aldrich) according to manufacturer’s protocol. The assay is based on spectrophotometric detection of p-nitroanilide (pNA) a colored molecule, after its cleavage from the labeled substrate DEVD-pNA by the activity of caspase-3 enzyme. PC-3 and DU 145 cells were treated with MS17 at different concentrations (EC50, 2 × EC50, 3 × EC50) at various time points, 6, 12, 24, 48 and 72 h as appropriate. Following treatment, cells were washed with PBS and suspended with lysis buffer (50 mM HEPES, pH 7.4, 5 mM CHAPS, 5 mM DTT) for 30 min on ice at the concentration of 10^7 cells per 100 µL buffer. Cells were then spun for 30 min at 16,000× g, 4 °C. Protein lysate concentrations were measured based on the Bradford assay method using the Cayman Chemical protein determination kit (Cayman Chemical Company, Ann Arbor, MI, USA) based on the manufacturer’s protocol. Assay was performed on a 96-well micro-titer plate by adding equal amount of protein lysate (~100 µg) into wells containing the assay buffer (20 mM HEPES pH 7.4, 0.1% CHAPS, 5 mM DTT, 2 mM EDTA). Reaction was started by the addition of 10 µL of substrate Ac-DEVD-pNA (2 mM). The effect of Ac-DEVD-CHO, a caspase-3 inhibitor was also studied simultaneously on caspase-3 activity. Ten microliter of the inhibitor (200 µM) was added into the wells containing the protein lysate, assay buffer and the substrate. Caspase-3 activity was measured upon the release of pNA molecule, a pale yellow colored product using the micro-plate ELISA reader (Bio-Rad) at the wavelength of 405 nm. Relative caspase-3 activity was expressed as absorbance of enzyme activity compared with the control (untreated cells/DMSO only) based on the equation below: Relative caspase 3 activity= Absorbance of treated cells /Absorbance of control

[8] = test system: caspase-3 activity in DU 145 cells; assay: Caspase-3 colorimetric activity assay, DU 145; format: cell-based, human; conditions: DU 145, all time points, inhibitor control
Protocol: as §4

Row | Compound | concentration from which anti-proliferative activity is significant (DU 145 cells [1]; 24 h) [µM] | concentration from which anti-proliferative activity is significant (DU 145 cells [1]; 48 h) [µM] | concentration from which anti-proliferative activity is significant (DU 145 cells [1]; 72 h) [µM] | EC50 [2] [µM] | EC50 [3] [µM] | dose from which decrease in cell viability is significant (DU 145 cells [4]) [µM] | EC50 (DU 145 cells [4]) [µM] | Selective index (SX) WI-38 vs DU 145 (DU 145 cells [4]) | Selective index (SX) WRL68 vs DU 145 (DU 145 cells [4]) | concentration from which anti-proliferative activity is significant (PC-3 cells [5]; 24 h) [µM] | concentration from which anti-proliferative activity is significant (PC-3 cells [5]; 48 h) [µM] | concentration from which anti-proliferative activity is significant (PC-3 cells [5]; 72 h) [µM] | EC50 (PC-3 cells [6]) [µM] | dose from which decrease in cell viability is significant (PC-3 cells [6]) [µM] | Selective index (SX) WI-38 vs PC-3 (PC-3 cells [6]) | Selective index (SX) WRL68 vs PC-3 (PC-3 cells [6]) | relative caspase-3 activity with caspase-3 inhibitor [7] | relative caspase-3 activity with caspase-3 inhibitor [8]
1 | COc1cc(/C=C/C(=O)CC(=O)/C=C/c2ccc(O)c(OC)c2)ccc1O [Curcumin, diferuloylmethane, reference compound] | 50 | 50 | 50 | 28.7 ± 3.2 | 27.9 ± 2.9 | 50 | 32.5 ± 1.4 | 85.8 | 88.2 | 50 | 50 | 50 | 35.9 ± 2.9 | 50 | 77.5 | 79.8 |  | 
2 | COc1cc(C=CC(=O)C=Cc2ccc(O)c(OC)c2)ccc1O [MS13, 1,5-bis(4-hydroxy-3-methoxyphenyl)-1,4-pentadiene-3-one] | 12.5 | 12.5 | 25 | 8.7 ± 0.2 | 9.4 ± 2.3 | 12.5 | 7.4 ± 2.6 | 127.2 | 117.3 | 12.5 | 12.5 | 12.5 | 7.5 ± 0.1 | 6.3 | 124.8 | 115.1 |  | 
3 | O=C(C=Cc1cccc(F)c1)C=Cc1cccc(F)c1 [MS40E, 1,5-bis(3-fluorophenyl)-1,4-pentadiene-3-one] | 50 | 50 | 50 | 30.3 ± 2 | 28.4 ± 1.7 | 50 | 30.3 ± 1.9 | 93.5 | 100.0 | 50 | 50 | 50 | 28 ± 7.8 | 50 | 101.4 | 108.3 |  | 
4 | O=C1C(=Cc2cccc(F)c2)CCCC1=Cc1cccc(F)c1 [MS49, 2,6-bis(3-fluorobenzylidene)cyclohexanone] | 25 | 25 | 50 | 13.1 ± 0.4 | 19.4 ± 7 | 25 | 12.3 ± 2.3 | 158.6 | 106.8 | 25 | 25 | 25 | 14.5 ± 1.2 | 12.5 | 134.3 | 90.4 |  | 
5 | Ac-DEVD-CHO [reference compound] |  |  |  |  |  |  |  |  |  |  |  |  |  |  |  |  | relatively low expression levels | relatively low expression levels
